{"source": "patent US20230101312A1", "about": "“SOS1 INHIBITORS” (Mirati Therapeutics, Inc., priority 2020, published 2023)", "test_system": "MKN1 cells or H358", "test": "pERK inhibition in-cell western", "type": "cell-based", "conditions": "MKN1 or H358 cells (cell line not given), 1 hour with compound, GAPDH normalized", "protocol": "This Example illustrates that exemplary compounds of the present invention prevent KRas-mediated GTP nucleotide exchange mediated by SOS1 to inhibit KRas activity thereby inhibiting the generation of the downstream effector pERK. MKN1 cells (15,000/w) or H358 (30,000/w) were seeded in a black clear flat bottom 96-well cell culture plate (Corning, #3904) and incubated at 37° C. overnight. Assay day 1, cells were dosed with compounds of Formula (I) with a 10 μm starting concentration and serially diluted 3× for a total of 9 concentrations. The cells were incubated for 1 hour with the compounds solubilized in DMSO at 37° C. Cells were immediately fixed by adding 50 μL of 4% formaldehyde to all wells in a fume hood and the plates were incubated for 20 minutes at room temperature. The formaldehyde was discarded from the plates and 150 μL of ice-cold methanol was added to permeabilize the cells for 10 minutes at −20° C. The methanol was discarded from each of the plates and any liquid remaining in the plate by tapping the plate against paper towels. Cells were then blocked with 150 μL of Odyssey blocking buffer (LI-COR Biosciences #927-50010) using 0.05% Tween for 1 hour at room temperature on a shaker. […] The IC50 values were then calculated with the Graph pad Prism software."}
{"smiles": "CNCc1ccccc1-c1csc([C@@H](C)Nc2ncc(C#N)c3cc(OC)c(OC)cc23)c1", "note": "[Example 1-1, (R)-6,7-dimethoxy-1-((1-(4-(2-((methylamino)methyl)phenyl)thiophen-2-yl)ethyl)amino)isoquinoline-4-carbonitrile]", "values": [{"measurement": "IC50", "result": 2050, "unit": "nM"}]}
